Legend:
CRBN and Helios (IKZF2) = molecular target: T1, CRBN and Helios (IKZF2) (Homo sapiens, UniProt Q96SW2+Q9UKS7); experiment: TR-FRET dimerization assay (CRBN-IKZF2 ternary complex formation); assay type: binding; conditions: n=1
T1 construct: His (N); Strep (N)
Experimental: A focused library of imide analogs was synthesized and assessed for their ability to induce dimerization between CRBN and Helios in a time-resolved fluorescence energy transfer (TR-FRET) assay (FIG. 1A).
Prior to TR-FRET measurements being conducted, the reactions were incubated for 15 min at rt. […] The TR-FRET signal of each data point was extracted by calculating the 520/490 nm ratios. Data from single measurements (n=1), each calculated as an average of at least three technical replicates per well per experiment are presented in Table 1.
BODIPY-labeled CRBN in complex with Damage Specific DNA Binding Protein 1 (DDB1) harboring an internal deletion of the flexible BPB propeller (DDB1AB-CRBN) and in vitro biotinylated IKZF2 were treated with increasing concentrations of the indicated compounds in the presence of tracer amounts of Terbium-Streptavidin (Tb-SA). Compound-induced recruitment of IKZF2 to CRBN was quantified following the 520/490 TR-FRET ratio using a PHERAstar® plate reader (BMG) utilizing two synchronized PMTs to reduce background.

IKZF2 = experiment: Cellular degradation assay, eGFP-IKZF2Δ fusion with mCherry reporter in Flp-In 293 cells; assay type: cell-based; conditions: for IKZF2 GFP/RFP Relative Abundance: 5 h incubation, n=1; for DC50: half degradation at 5 h (DC50,5 h), triplicate, 11 point dose response
Experimental: (§1) IKZF1Δ, IKZF2Δ, GSPT1 and SALL4 ZnF1-2 were subcloned into mammalian pcDNA5/FRT Vector (Ampicillin and Hygromycin B resistant) modified to contain MCS-eGFP-P2A-mCherry. […] Following 2-3 passage cycle, FACS (FACSAria™ II, BD) was used to enrich for cells expressing eGFP and mCherry. Cells stably expressing the IKZF1Δ, IKZF2Δ, GSPT1 or SALL4 Znf1-2 GFP fusions with mCherry reporter were seeded at 30-50% confluency in 384-well plates with 50 μL FluoroBrite™ DMEM media (Thermo Fisher Scientific, A18967) containing 10% FBS per well a day before compound treatment. Compound titrations were dispensed using a D300e Digital Dispenser (HP), normalized to 0.5% DMSO, and incubated with cells for 5 hours.
(§2) The resulting images were analyzed using CellProfiler™. A series of image analysis steps (‘image analysis pipeline’) was constructed. First, the red and green channels were aligned and cropped to target the middle of each well (to avoid analysis of heavily clumped cells at the edges), and a background illumination function was calculated for both red and green channels of each well individually and subtracted to correct for illumination variations across the 384-well plate from various sources of error. An additional step was then applied to the green channel to suppress the analysis of large auto fluorescent artifacts and enhance the analysis of cell specific fluorescence by way of selecting for objects under a given size, 30 A.U., and with a given shape, speckles. mCherry-positive cells were then identified in the red channel filtering for objects between 8-60 pixels in diameter and using intensity to distinguish between clumped objects. The green channel was then segmented into GFP positive and negative areas and objects were labeled as GFP positive if at least 40% of it overlapped with a GFP positive area. The fraction of GFP-positive cells/mCherry-positive cells in each well was then calculated, and the green and red images were rescaled for visualization.
(§3) The degradation assay was performed as described above. […] Degradation was measured after 5 h of compound treatment and the concentrations that lead to half degradation at 5 h (DC50,5 h) were calculated using the nonlinear fit variable slope model (GraphPad Software).

IKZF1 = molecular target: T2, IKZF1 (Homo sapiens, UniProt Q13422); experiment: Cellular degradation assay, eGFP-IKZF1Δ fusion with mCherry reporter in Flp-In 293 cells; assay type: cell-based; conditions: for IKZF1 GFP/RFP Relative Abundance: 5 h incubation, n=1; for DC50: half degradation at 5 h (DC50,5 h), triplicate, 11 point dose response
T2 construct: expressed in transfected cells; host or cells: Flp-In 293
T2 sequence (Q13422 83-213 isoform Q13422-7 limits assumed): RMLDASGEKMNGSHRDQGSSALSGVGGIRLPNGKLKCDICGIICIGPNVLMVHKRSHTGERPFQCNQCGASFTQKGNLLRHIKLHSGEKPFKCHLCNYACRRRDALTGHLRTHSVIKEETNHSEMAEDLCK
T2 sequence (Q96SW2 whole entry partner, the tested form may be a part): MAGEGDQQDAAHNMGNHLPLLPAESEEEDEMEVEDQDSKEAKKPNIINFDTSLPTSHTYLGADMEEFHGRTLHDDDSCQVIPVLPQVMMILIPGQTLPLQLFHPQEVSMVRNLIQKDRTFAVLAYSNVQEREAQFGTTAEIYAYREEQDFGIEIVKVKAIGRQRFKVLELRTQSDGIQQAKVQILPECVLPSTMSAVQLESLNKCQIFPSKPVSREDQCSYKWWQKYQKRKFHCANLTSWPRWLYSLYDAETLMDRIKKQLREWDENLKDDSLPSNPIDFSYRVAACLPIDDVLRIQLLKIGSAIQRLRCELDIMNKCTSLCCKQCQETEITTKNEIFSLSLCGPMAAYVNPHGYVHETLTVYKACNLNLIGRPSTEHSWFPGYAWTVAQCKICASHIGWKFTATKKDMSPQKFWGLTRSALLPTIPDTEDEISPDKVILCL
T2 sequence (Q16531 2-1140 partner limits assumed): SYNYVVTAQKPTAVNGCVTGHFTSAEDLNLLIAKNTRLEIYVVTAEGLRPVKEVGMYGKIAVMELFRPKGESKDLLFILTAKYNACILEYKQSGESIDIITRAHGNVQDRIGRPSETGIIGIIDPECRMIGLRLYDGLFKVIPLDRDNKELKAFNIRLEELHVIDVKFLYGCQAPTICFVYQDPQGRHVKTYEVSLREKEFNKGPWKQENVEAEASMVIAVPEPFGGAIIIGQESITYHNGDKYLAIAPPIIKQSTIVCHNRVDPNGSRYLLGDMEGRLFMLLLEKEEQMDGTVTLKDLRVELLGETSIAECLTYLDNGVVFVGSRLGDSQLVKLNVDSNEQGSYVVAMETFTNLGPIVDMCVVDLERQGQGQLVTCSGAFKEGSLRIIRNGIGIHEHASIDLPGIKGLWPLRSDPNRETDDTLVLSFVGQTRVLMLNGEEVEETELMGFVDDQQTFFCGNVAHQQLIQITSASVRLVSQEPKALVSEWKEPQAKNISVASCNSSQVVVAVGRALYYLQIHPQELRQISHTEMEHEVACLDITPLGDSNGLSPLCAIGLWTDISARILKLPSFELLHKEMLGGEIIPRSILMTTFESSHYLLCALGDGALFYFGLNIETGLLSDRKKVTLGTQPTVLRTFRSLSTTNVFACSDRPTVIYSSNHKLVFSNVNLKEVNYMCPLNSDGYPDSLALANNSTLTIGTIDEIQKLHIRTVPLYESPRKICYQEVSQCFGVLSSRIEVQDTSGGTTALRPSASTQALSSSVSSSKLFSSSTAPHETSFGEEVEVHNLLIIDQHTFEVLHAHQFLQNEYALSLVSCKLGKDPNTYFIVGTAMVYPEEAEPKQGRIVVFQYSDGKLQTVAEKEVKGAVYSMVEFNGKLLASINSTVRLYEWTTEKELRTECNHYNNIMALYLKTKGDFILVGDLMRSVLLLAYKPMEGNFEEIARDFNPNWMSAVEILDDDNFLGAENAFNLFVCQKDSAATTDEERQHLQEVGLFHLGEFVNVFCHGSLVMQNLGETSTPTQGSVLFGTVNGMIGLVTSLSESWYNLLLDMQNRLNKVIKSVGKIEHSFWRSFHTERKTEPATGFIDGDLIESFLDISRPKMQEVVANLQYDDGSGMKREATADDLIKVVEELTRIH
Experimental: as §1, §2, §3

GSPT1 = GSPT1 (Homo sapiens, UniProt P15170+Q96SW2); experiment: Cellular degradation assay, eGFP-GSPT1 fusion with mCherry reporter in Flp-In 293 cells; assay type: cell-based; design: expressed in transfected cells; host or cells: Flp-In 293; conditions: for GSPT1 GFP/RFP Relative Abundance: 5 h incubation, n=1; for DC50: half degradation at 5 h (DC50,5 h), triplicate, 11 point dose response
Chain of GSPT1 (P15170 whole entry, the tested form may be a part): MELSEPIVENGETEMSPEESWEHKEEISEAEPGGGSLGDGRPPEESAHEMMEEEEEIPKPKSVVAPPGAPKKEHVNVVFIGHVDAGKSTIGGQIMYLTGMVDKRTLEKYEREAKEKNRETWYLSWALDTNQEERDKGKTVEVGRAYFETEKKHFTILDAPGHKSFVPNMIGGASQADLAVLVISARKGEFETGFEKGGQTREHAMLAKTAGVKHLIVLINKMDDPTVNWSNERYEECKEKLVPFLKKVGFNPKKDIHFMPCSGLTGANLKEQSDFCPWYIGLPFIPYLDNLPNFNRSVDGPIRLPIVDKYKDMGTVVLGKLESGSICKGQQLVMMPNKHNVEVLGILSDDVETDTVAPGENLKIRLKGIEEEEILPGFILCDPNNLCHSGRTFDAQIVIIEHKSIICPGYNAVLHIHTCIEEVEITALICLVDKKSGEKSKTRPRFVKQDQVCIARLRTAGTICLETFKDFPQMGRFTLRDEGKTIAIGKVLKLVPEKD
Chain of GSPT1 (Q96SW2 whole entry, the tested form may be a part): as the sequence (Q96SW2 whole entry partner, the tested form may be a part) above
Chain of GSPT1 (Q16531 whole entry partner, the tested form may be a part): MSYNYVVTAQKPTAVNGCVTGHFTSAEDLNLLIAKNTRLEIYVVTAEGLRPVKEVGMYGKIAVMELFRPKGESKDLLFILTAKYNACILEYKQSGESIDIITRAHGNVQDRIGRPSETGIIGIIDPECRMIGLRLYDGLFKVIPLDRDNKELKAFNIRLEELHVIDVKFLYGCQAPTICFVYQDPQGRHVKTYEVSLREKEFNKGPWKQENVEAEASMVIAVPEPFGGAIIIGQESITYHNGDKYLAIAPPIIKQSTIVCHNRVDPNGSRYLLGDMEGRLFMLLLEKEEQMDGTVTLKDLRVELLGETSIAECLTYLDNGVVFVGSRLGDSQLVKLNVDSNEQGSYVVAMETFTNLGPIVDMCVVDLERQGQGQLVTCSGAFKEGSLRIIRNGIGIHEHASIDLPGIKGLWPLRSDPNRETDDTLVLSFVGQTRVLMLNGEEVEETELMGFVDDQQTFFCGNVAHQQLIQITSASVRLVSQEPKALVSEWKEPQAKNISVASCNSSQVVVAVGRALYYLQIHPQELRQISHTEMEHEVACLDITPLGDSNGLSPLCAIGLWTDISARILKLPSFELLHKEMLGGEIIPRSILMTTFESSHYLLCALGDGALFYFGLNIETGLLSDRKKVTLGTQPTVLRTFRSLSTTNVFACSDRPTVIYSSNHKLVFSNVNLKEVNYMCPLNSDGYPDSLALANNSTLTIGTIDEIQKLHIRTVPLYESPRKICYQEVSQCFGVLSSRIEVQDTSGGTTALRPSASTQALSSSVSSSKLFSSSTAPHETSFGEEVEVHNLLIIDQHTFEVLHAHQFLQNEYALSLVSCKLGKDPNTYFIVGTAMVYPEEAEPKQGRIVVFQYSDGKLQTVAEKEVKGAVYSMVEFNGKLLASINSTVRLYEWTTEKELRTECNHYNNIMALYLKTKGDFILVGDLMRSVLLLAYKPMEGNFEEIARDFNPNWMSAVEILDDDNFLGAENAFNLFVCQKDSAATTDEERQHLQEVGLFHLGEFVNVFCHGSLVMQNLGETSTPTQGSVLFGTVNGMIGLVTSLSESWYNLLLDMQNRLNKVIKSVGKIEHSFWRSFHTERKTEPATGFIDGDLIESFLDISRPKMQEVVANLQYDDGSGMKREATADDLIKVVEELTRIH
Experimental: as §1, §2, §3

[1] = compound concentration 6.6667E−05
[2] = compound concentration 6.6667E−06
[3] = compound concentration 6.6667E−07 (667 nM)
[4] = compound concentration 2.00E−05
[5] = compound concentration 2.00E−06
[6] = compound concentration 2.00E−07

T1 sequence (Q96SW2 whole entry): as the sequence (Q96SW2 whole entry partner, the tested form may be a part) above
T1 sequence (Q9UKS7 whole entry): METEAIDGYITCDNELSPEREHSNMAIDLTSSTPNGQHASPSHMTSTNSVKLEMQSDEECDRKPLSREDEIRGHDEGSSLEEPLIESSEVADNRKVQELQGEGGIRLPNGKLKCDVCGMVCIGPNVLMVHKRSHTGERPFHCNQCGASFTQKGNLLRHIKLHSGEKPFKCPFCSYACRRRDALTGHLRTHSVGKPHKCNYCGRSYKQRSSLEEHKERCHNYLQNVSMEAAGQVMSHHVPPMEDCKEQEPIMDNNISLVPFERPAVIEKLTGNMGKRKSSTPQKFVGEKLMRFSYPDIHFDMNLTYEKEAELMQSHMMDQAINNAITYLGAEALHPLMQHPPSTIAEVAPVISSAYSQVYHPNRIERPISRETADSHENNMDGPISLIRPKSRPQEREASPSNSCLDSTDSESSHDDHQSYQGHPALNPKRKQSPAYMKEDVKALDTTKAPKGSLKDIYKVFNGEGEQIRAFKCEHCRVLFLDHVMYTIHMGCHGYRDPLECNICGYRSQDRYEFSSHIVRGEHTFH

| SMILES | TR-FRET-IKZF2 (Normalized to CC-885) (CRBN and Helios (IKZF2); [1]) | TR-FRET-IKZF2 (Normalized to CC-885) (CRBN and Helios (IKZF2); [2]) | TR-FRET-IKZF2 (Normalized to CC-885) (CRBN and Helios (IKZF2); [3]) | IKZF2 GFP/RFP Relative Abundance (IKZF2; [4]) | IKZF2 GFP/RFP Relative Abundance (IKZF2; [5]) | IKZF2 GFP/RFP Relative Abundance (IKZF2; [6]) | IKZF1 GFP/RFP Relative Abundance (IKZF1; [4]) | IKZF1 GFP/RFP Relative Abundance (IKZF1; [5]) | IKZF1 GFP/RFP Relative Abundance (IKZF1; [6]) | GSPT1 GFP/RFP Relative Abundance (GSPT1; [4]) | GSPT1 GFP/RFP Relative Abundance (GSPT1; [5]) | GSPT1 GFP/RFP Relative Abundance (GSPT1; [6]) | degradation selectivity IKZF2/IKZF1 (IKZF2; from DC50 values of Table 3) [fold] | DC50 (IKZF2) [nM] | DC50 (IKZF1) [nM] | DC50 (GSPT1) [nM] |
| --- | --- | --- | --- | --- | --- | --- | --- | --- | --- | --- | --- | --- | --- | --- | --- | --- |
| Cc1ccc(NC(=O)CCc2cccc(NC3=CC(=O)N(C4CCC(=O)NC4=O)C3=O)c2)cc1Cl (stereo not shown) [Compound 53, N-(3-chloro-4-methylphenyl)-3-(3-((1-(2,6-dioxopiperidin-3-yl)-2,5-dioxo-2,5-dihydro-1H-pyrrol-3-yl)amino)phenyl)propanamide] | 1.708 | 1.574 | 1.455 | 0.030 | 0.022 | 0.029 | 0.110 | 0.077 | 0.078 | 0.232 | 0.982 | 0.931 |  |  |  |  |
| Cc1ccc(NC(=O)Nc2cccc(NC3=CC(=O)N(C4CCC(=O)NC4=O)C3=O)c2)cc1C (stereo not shown) [Compound 55, 1-(3,4-dimethylphenyl)-3-(3-((1-(2,6-dioxopiperidin-3-yl)-2,5-dioxo-2,5-dihydro-1H-pyrrol-3-yl)amino)phenyl)urea] | 0.523 | 0.430 | 0.321 | 1.029 | 0.936 | 0.938 | 0.471 | 0.212 | 0.251 | 0.096 | 0.153 | 0.180 |  |  |  |  |
| CC(C)(NC(=O)Cc1cccc(C(F)(F)F)c1)c1cccc(NC2=CC(=O)N(C3CCC(=O)NC3=O)C2=O)c1 (stereo not shown) [Compound 139, N-(2-(3-((1-(2,6-dioxopiperidin-3-yl)-2,5-dioxo-2,5-dihydro-1H-pyrrol-3-yl)amino)phenyl)propan-2-yl)-2-(3-(trifluoromethyl)phenyl)acetamide] |  |  |  |  |  |  |  |  |  |  |  |  | 10 | 17 | 167 | > 1000 |
| CC(NC(=O)Cc1cccc(C(F)(F)F)c1)c1cccc(NC2=CC(=O)N(C3CCC(=O)NC3=O)C2=O)c1 (stereo not shown) [Compound 142, N-(1-(3-((1-(2,6-dioxopiperidin-3-yl)-2,5-dioxo-2,5-dihydro-1H-pyrrol-3-yl)amino)phenyl)ethyl)-2-(3-(trifluoromethyl)phenyl)acetamide] |  |  |  |  |  |  |  |  |  |  |  |  |  | 16 | 16 | > 1000 |
| O=C1CCC(N2C(=O)C=C(Nc3cccc(CCC(=O)Nc4cccc(C(F)(F)F)c4)c3)C2=O)C(=O)N1 (stereo not shown) [Compound 148, 3-(3-((1-(2,6-dioxopiperidin-3-yl)-2,5-dioxo-2,5-dihydro-1H-pyrrol-3-yl)amino)phenyl)-N-(3-(trifluoromethyl)phenyl)propanamide] |  |  |  |  |  |  |  |  |  |  |  |  |  | 13 | 3.2 | > 1000 |

— patent US12227488B2, “Small molecule degraders of Helios and methods of use” (DANA-FARBER CANCER INSTITUTE, INC., priority 2018, dated 2025)
